Laboratory results reported in PubChem BioAssay AID328 (DTP/NCI, 2004).
“And” between values parts separate entries of the source, which are not always exact repeats. Equal entries are not always repeated. Inconclusive results and toxic doses are left out.

Tested on: BDF1 mice, P388 leukemia ip, median survival T/C
Assay: NCI In Vivo Anticancer Drug Screen. Data for tumor model P388 Leukemia (intraperitoneal) in B6D2F1 (BDF1) mice
Details: endpoint: median survival time, higher = longer survival
Outline: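 T/C = treated-group survival ÷ vehicle-control survival; tumour transplanted into mice before dosing.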

[1] = dose: 0.4 mg/kg/injection, schedule: Q01DX009 (ip), vehicle: saline
[2] = dose: 0.6 mg/kg/injection, schedule: Q01DX009 (ip), vehicle: saline
[3] = dose: 100.0 mg/kg/injection, schedule: Q01DX009 (ip), vehicle: saline with Tween-80
[4] = dose: 100.0 mg/kg/injection, schedule: Q04DX003 (ip), vehicle: saline with Tween-80
[5] = dose: 200.0 mg/kg/injection, schedule: Q01DX009 (ip), vehicle: saline with Tween-80
[6] = dose: 200.0 mg/kg/injection, schedule: Q04DX003 (ip), vehicle: saline with Tween-80
[7] = dose: 50.0 mg/kg/injection, schedule: Q01DX009 (ip), vehicle: saline with Tween-80
[8] = dose: 25.0 mg/kg/injection, schedule: Q01DX009 (ip), vehicle: saline with Tween-80
[9] = dose: 0.3 mg/kg/injection, schedule: Q01DX009 (ip), vehicle: saline

SMILES: FC1(F)C(F)(F)C(Cl)(Cl)C1(Cl)Cl
- T/C (dose: 75.0 mg/kg/injection, schedule: Q01DX001 (ip), vehicle: saline): 100 % of control
- T/C (dose: 150.0 mg/kg/injection, schedule: Q01DX001 (ip), vehicle: saline): 109 % of control
- T/C (dose: 300.0 mg/kg/injection, schedule: Q01DX001 (ip), vehicle: saline): 104 % of control

SMILES: COc1cccc2c1C(=O)c1c(O)c3c(c(O)c1C2=O)C[C@@](O)(/C(C)=N\NC(=O)CO)C[C@@H]3OC1CC(N)C(O)C(C)O1 (some centres undefined)
- T/C (dose: 0.27 mg/kg/injection, schedule: Q01DX009 (ip), vehicle: saline): 172 % of control
- T/C [1]: 183 % of control
- T/C [2]: 190 % of control
- T/C (dose: 0.9 mg/kg/injection, schedule: Q01DX009 (ip), vehicle: saline): 186 % of control
- T/C (dose: 1.87 mg/kg/injection, schedule: Q01DX009 (ip), vehicle: saline): 248 % of control
- T/C (dose: 2.2 mg/kg/injection, schedule: Q04DX003 (ip), vehicle: saline): 159 % of control and 172 % of control
- T/C (dose: 3.3 mg/kg/injection, schedule: Q04DX003 (ip), vehicle: saline): 154 % of control and 213 % of control
- T/C (dose: 3.75 mg/kg/injection, schedule: Q01DX009 (ip), vehicle: saline): 182 % of control
- T/C (dose: 5.0 mg/kg/injection, schedule: Q04DX003 (ip), vehicle: saline): 163 % of control and 209 % of control
- T/C (dose: 7.5 mg/kg/injection, schedule: Q01DX009 (ip), vehicle: saline): 115 % of control
- T/C (dose: 7.5 mg/kg/injection, schedule: Q04DX003 (ip), vehicle: saline): 150 % of control and 200 % of control
- T/C (dose: 29.0 micrograms/kg/injection, schedule: Q01DX009 (ip), vehicle: saline): 110 % of control
- T/C (dose: 44.0 micrograms/kg/injection, schedule: Q01DX009 (ip), vehicle: saline): 116 % of control

SMILES: O=C1Cc2ccccc21
- T/C [3]: 96 % of control
- T/C [4]: 100 % of control and 110 % of control
- T/C (dose: 177.0 mg/kg/injection, schedule: Q04DX003 (ip), vehicle: saline with Tween-80): 100 % of control
- T/C [5]: 107 % of control
- T/C [6]: 110 % of control
- T/C (dose: 266.0 mg/kg/injection, schedule: Q04DX003 (ip), vehicle: saline with Tween-80): 104 % of control and 109 % of control
- T/C (dose: 600.0 mg/kg/injection, schedule: Q04DX003 (ip), vehicle: saline with Tween-80): 104 % of control and 122 % of control

SMILES: CCN(CC)CCCC(C)NC(=O)c1ccc(N(C)C)nc1 (centres undefined)
- T/C (dose: 50.0 mg/kg/injection, schedule: Q01DX009 (ip), vehicle: water): 93 % of control

SMILES: CSc1cc(C(N)=O)c2c(N)nc(SC)nc2n1
- T/C (dose: 25.0 mg/kg/injection, schedule: Q01DX001 (ip), vehicle: saline with Tween-80): 111 % of control
- T/C (dose: 50.0 mg/kg/injection, schedule: Q01DX001 (ip), vehicle: saline with Tween-80): 109 % of control
- T/C (dose: 100.0 mg/kg/injection, schedule: Q01DX001 (ip), vehicle: saline with Tween-80): 100 % of control and 111 % of control
- T/C (dose: 400.0 mg/kg/injection, schedule: Q01DX001 (ip), vehicle: saline with Tween-80): 100 % of control

SMILES: CC(=O)C(O)c1c(O)cc(C)[nH]c1=O (centres undefined)
- T/C [7]: 100 % of control
- T/C [3]: 97 % of control
- T/C [5]: 98 % of control

SMILES: C[C@]12CC[C@H]3C(=CCc4cc(O)ccc43)[C@@H]1C/C(=N\O)C2=O
- T/C (dose: 100.0 mg/kg/injection, schedule: Q01DX009 (ip), vehicle: saline): 90 % of control
- T/C (dose: 100.0 mg/kg/injection, schedule: Q04DX003 (ip), vehicle: Klucel (hydroxypropylcellulose) (HPC)): 104 % of control
- T/C (dose: 200.0 mg/kg/injection, schedule: Q01DX009 (ip), vehicle: saline): 100 % of control
- T/C (dose: 200.0 mg/kg/injection, schedule: Q04DX003 (ip), vehicle: Klucel (hydroxypropylcellulose) (HPC)): 95 % of control
- T/C (dose: 264.0 mg/kg/injection, schedule: Q01DX009 (ip), vehicle: saline with Tween-80): 109 % of control
- T/C (dose: 400.0 mg/kg/injection, schedule: Q01DX009 (ip), vehicle: saline with Tween-80): 104 % of control
- T/C (dose: 400.0 mg/kg/injection, schedule: Q01DX009 (ip), vehicle: saline): 95 % of control
- T/C (dose: 400.0 mg/kg/injection, schedule: Q04DX003 (ip), vehicle: Klucel (hydroxypropylcellulose) (HPC)): 90 % of control
- T/C (dose: 600.0 mg/kg/injection, schedule: Q01DX009 (ip), vehicle: saline with Tween-80): 109 % of control

SMILES: CSC(=S)N/N=C(\C)C1CCCC[N-]1.[Cl][Zn][Cl] (centres undefined)
- T/C (dose: 12.5 mg/kg/injection, schedule: Q01DX009 (ip), vehicle: saline with Tween-80): 105 % of control
- T/C [8]: 119 % of control
- T/C [7]: 118 % of control

SMILES: CC1CCS(=O)(=O)CC1.[Cl][Hg][Cl]
- T/C [9]: 95 % of control
- T/C [2]: 100 % of control
- T/C (dose: 1.2 mg/kg/injection, schedule: Q01DX009 (ip), vehicle: saline): 95 % of control

SMILES: CCN(CC)c1c(C)nnc2c(-c3ccccc3)cnn12
- T/C (dose: 50.0 mg/kg/injection, schedule: Q04DX003 (ip), vehicle: saline with Tween-80): 108 % of control
- T/C [4]: 100 % of control
- T/C [6]: 104 % of control

SMILES: c1ccc([P+](c2ccccc2)(c2ccccc2)c2ccccc2)cc1
- T/C (dose: 0.06 mg/kg/injection, schedule: Q01DX009 (ip), vehicle: saline): 116 % of control
- T/C (dose: 0.09 mg/kg/injection, schedule: Q01DX009 (ip), vehicle: saline): 122 % of control
- T/C (dose: 0.13 mg/kg/injection, schedule: Q01DX009 (ip), vehicle: saline): 100 % of control
- T/C (dose: 0.2 mg/kg/injection, schedule: Q01DX009 (ip), vehicle: saline): 100 % of control
- T/C [9]: 104 % of control
- T/C [1]: 150 % of control
- T/C (dose: 0.41 mg/kg/injection, schedule: Q01DX009 (ip), vehicle: saline): 165 % of control
- T/C (dose: 0.44 mg/kg/injection, schedule: Q01DX009 (ip), vehicle: saline): 120 % of control
- T/C (dose: 0.62 mg/kg/injection, schedule: Q01DX009 (ip), vehicle: saline): 150 % of control and 163 % of control and 170 % of control
- T/C (dose: 0.66 mg/kg/injection, schedule: Q01DX009 (ip), vehicle: saline): 171 % of control
- T/C (dose: 0.67 mg/kg/injection, schedule: Q04DX003 (ip), vehicle: saline): 118 % of control
- T/C (dose: 0.93 mg/kg/injection, schedule: Q01DX009 (ip), vehicle: saline): 150 % of control and 165 % of control
- T/C (dose: 1.0 mg/kg/injection, schedule: Q01DX009 (ip), vehicle: Klucel (hydroxypropylcellulose) (HPC)): 155 % of control
- T/C (dose: 1.0 mg/kg/injection, schedule: Q01DX009 (ip), vehicle: saline): 180 % of control
- T/C (dose: 1.35 mg/kg/injection, schedule: Q04DX003 (ip), vehicle: saline): 122 % of control
- T/C (dose: 1.5 mg/kg/injection, schedule: Q01DX009 (ip), vehicle: Klucel (hydroxypropylcellulose) (HPC)): 158 % of control
- T/C (dose: 1.5 mg/kg/injection, schedule: Q01DX009 (ip), vehicle: saline): 154 % of control and 164 % of control
- T/C (dose: 2.0 mg/kg/injection, schedule: Q01DX009 (ip), vehicle: Klucel (hydroxypropylcellulose) (HPC)): 157 % of control and 163 % of control
- T/C (dose: 2.25 mg/kg/injection, schedule: Q01DX009 (ip), vehicle: saline): 164 % of control
- T/C (dose: 3.2 mg/kg/injection, schedule: Q01DX009 (ip), vehicle: Klucel (hydroxypropylcellulose) (HPC)): 175 % of control
- T/C (dose: 4.0 mg/kg/injection, schedule: Q01DX009 (ip), vehicle: Klucel (hydroxypropylcellulose) (HPC)): 164 % of control
- T/C (dose: 4.0 mg/kg/injection, schedule: Q04DX003 (ip), vehicle: saline): 158 % of control and 165 % of control
- T/C (dose: 7.5 mg/kg/injection, schedule: Q01DX009 (ip), vehicle: Klucel (hydroxypropylcellulose) (HPC)): 89 % of control and 100 % of control

SMILES: [Cl][Rh][Cl].[NH-]c1ccc(S(N)(=O)=O)cc1.[NH-]c1ccc(S(N)(=O)=O)cc1.[NH-]c1ccc(S(N)(=O)=O)cc1.[NH-]c1ccc(S(N)(=O)=O)cc1
- T/C [4]: 108 % of control
- T/C [6]: 103 % of control
- T/C (dose: 400.0 mg/kg/injection, schedule: Q04DX003 (ip), vehicle: saline with Tween-80): 107 % of control

SMILES: Nc1nc(-c2cccc3ccccc23)cc2ccccc12
- T/C [8]: 115 % of control
- T/C [7]: 119 % of control
- T/C [3]: 151 % of control and 182 % of control
- T/C [5]: 151 % of control

SMILES: CC(=O)OCC(=O)[C@@]1(O)CC[C@H]2[C@@H]3CCC4=CC(=O)CC[C@]4(C)[C@@]3(Cl)[C@@H](O)C[C@@]21C
- T/C (dose: 18.7 mg/kg/injection, schedule: Q04DX003 (ip), vehicle: saline with Tween-80): 109 % of control
- T/C (dose: 37.5 mg/kg/injection, schedule: Q04DX003 (ip), vehicle: saline with Tween-80): 109 % of control
- T/C (dose: 66.0 mg/kg/injection, schedule: Q04DX003 (ip), vehicle: saline with Tween-80): 113 % of control
- T/C (dose: 75.0 mg/kg/injection, schedule: Q04DX003 (ip), vehicle: saline with Tween-80): 118 % of control
- T/C (dose: 150.0 mg/kg/injection, schedule: Q04DX003 (ip), vehicle: saline with Tween-80): 118 % of control
